Test results taken from US20210269451A1, “PYRIDINYL HETEROCYCLYL COMPOUNDS FOR THE TREATMENT OF AUTOIMMUNE DISEASE” (Hoffmann-La Roche Inc., priority 2018, published 2021).

Target: T1, hERG channel (Homo sapiens, UniProt Q12809)
T1 construct: expressed in transfected cells; host or cells: CHO (Chinese hamster ovary), CHOhERG
Assay: hERG channel inhibition assay (patch-clamp, CHOhERG cells);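 as to hERG IC20/TLR7 IC50: ratio above 30 indicates an adequate safety window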;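 as to hERG IC20/TLR8 IC50: ratio above 30 indicates an adequate safety window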
Format: cell-based
Conditions: for IC50 / IC20: CHOhERG cells, whole-cell patch-clamp; for IC20: human, CHO cells stably expressing hERG (CHOhERG); for hERG IC20/TLR7 IC50 / hERG IC20/TLR8 IC50 / hERG IC20/TLR9 IC50: safety ratio
Experimental: hERG channel inhibition assay:
The hERG K^+ channels were cloned in humans and stably expressed in a CHO (Chinese hamster ovary) cell line. CHOhERG cells were used for patch-clamp (voltage-clamp, whole-cell) experiments. Cells were stimulated by a voltage pattern to activate hERG channels and conduct IKhERG currents (rapid delayed outward rectifier potassium current of the hERG channel). After the cells were stabilized for a few minutes, the amplitude and kinetics of IKhERG were recorded at a stimulation frequency of 0.1 Hz (6 bpm). Thereafter, the test compound was added to the preparation at increasing concentrations. For each concentration, an attempt was made to reach a steady-state effect, usually, this was achieved within 3-10 min at which time the next highest concentration was applied. The amplitude and kinetics of IKhERG are recorded in each concentration of the drug which were compared to the control values (taken as 100%). (references: Redfern W S, Carlsson L, Davis A S, Lynch W G, MacKenzie I, Palethorpe S, Siegl P K, Strang I, Sullivan A T, Wallis R, Camm A J, Hammond T G. 2003; Relationships between preclinical cardiac electrophysiology, clinical QT interval prolongation and torsade de pointes for a broad range of drugs: evidence for a provisional safety margin in drug development. Cardiovasc. Res. 58:32-45, Sanguinetti M C, Tristani-Firouzi M. 2006; hERG potassium channels and cardiac arrhythmia. Nature 440:463-469, Webster R, Leishman D, Walker D. 2002; Towards a drug concentration effect relationship for QT prolongation and torsades de pointes. Curr. Opin. Drug Discov. Devel. 5:116-26).

T1 sequence (Q12809 whole entry): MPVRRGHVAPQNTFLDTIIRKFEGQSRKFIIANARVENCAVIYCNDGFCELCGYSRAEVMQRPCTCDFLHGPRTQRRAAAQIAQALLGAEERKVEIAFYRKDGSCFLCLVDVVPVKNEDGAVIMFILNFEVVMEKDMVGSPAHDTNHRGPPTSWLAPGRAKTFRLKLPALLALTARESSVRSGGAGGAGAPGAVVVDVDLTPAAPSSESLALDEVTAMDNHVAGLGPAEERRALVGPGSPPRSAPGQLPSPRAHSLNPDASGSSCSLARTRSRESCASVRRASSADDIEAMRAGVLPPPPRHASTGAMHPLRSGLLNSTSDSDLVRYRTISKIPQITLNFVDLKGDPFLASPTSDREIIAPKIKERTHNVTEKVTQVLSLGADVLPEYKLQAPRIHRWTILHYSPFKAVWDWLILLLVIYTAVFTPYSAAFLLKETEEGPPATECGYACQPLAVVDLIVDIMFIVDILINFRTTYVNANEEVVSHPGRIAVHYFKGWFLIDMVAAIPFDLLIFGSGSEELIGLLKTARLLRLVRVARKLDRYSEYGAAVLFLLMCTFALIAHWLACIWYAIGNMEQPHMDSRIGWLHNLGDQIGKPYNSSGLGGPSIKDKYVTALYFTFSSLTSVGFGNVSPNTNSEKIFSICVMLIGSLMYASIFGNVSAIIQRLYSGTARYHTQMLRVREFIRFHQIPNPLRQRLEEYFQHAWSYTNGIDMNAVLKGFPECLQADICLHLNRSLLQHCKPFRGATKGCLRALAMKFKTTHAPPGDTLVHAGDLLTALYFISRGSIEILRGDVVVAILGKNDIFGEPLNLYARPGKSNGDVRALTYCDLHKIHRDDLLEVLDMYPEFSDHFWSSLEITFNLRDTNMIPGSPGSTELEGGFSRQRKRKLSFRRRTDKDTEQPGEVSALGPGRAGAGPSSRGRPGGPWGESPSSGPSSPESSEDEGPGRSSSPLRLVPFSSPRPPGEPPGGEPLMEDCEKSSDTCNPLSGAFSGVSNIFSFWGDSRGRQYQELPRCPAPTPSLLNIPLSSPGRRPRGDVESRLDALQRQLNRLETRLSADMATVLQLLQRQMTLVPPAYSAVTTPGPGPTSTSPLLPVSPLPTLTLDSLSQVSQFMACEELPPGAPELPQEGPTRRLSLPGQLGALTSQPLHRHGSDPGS

| Compound | IC50 [µM] | IC20 [µM] | hERG IC20/TLR7 IC50 | hERG IC20/TLR8 IC50 | hERG IC20/TLR9 IC50 |
| --- | --- | --- | --- | --- | --- |
| Cc1cc(N2CC3(CN(C[C@H]4CN(c5ccc(C#N)c6ncccc56)C[C@@H](C)O4)C3)C2)cc(CO)n1 [Example 1, 5-[(2S,6R)-2-[[2-[2-(hydroxymethyl)-6-methyl-4-pyridyl]-2,6-diazaspiro[3.3]heptan-6-yl]methyl]-6-methyl-morpholin-4-yl]quinoline-8-carbonitrile] | > 20 | > 10 | >357.1 | >123.5 | >294.1 |
| Cc1cc(NC2CCN(C[C@H]3CN(c4ccc(C#N)c5ncccc45)C[C@@H](C)O3)CC2)cc(CO)n1 [Example 5] | > 20 | 7.18 | 121.8 | 217.7 | 224.5 |
| Cc1cc(N2CC(NC[C@H]3CN(c4ccc(C#N)c5ncccc45)C[C@@H](C)O3)C2)cc(CO)n1 [Example 30] | > 10 | 4.51 | 69.4 | 322.0 | 51.2 |
| CC(O)c1cc(N2CC3(CN(C[C@H]4CN(c5ccc(C#N)c6ncccc56)C[C@@H](C)O4)C3)C2)ccn1 (stereo partly drawn) [Example 46, 5-[(2S,6R)-2-[[2-[2-(1-hydroxyethyl)-4-pyridyl]-2,6-diazaspiro[3.3]heptan-6-yl]methyl]-6-methyl-morpholin-4-yl]quinoline-8-carbonitrile] | > 10 | 4.69 | 146.6 | 52.1 | 146.6 |
| C[C@@H]1CN(c2ccc(C#N)c3ncccc23)C[C@H](CN2CCN(c3cc(N)nc(CO)c3)CC2)O1 [Example 45, 5-[(2S,6R)-2-[[4-[2-amino-6-(hydroxymethyl)-4-pyridyl]piperazin-1-yl]methyl]-6-methyl-morpholin-4-yl]quinoline-8-carbonitrile] | > 20 | > 10 | >256.4 | >714.3 | >109.9 |
| Cc1cc(NC2CN(C[C@H]3CN(c4ccc(C#N)c5ncccc45)C[C@@H](C)O3)C2)cc(C)n1 [Example 7] | > 20 | > 10 | >384.6 | >322.6 | >256.4 |
| Cc1cc(NC2CCN(C[C@H]3CN(c4ccc(C#N)c5ncccc45)C[C@@H](C)O3)C2)cc(CO)n1 (some centres unmarked) [Example 6] | > 20 | 5.83 | 132.4 | 109.9 | 142.1 |
